Reference: patent publication US11064701B2, “Benzoxaborole compounds” (BASF SE, priority 2016, dated 2021)

What was measured:
Experiment in all cases: greenhouse post-emergence herbicidal test
Assay type in all cases: in vivo
Conditions in all cases: application rate 2 kg/ha, post-emergence method; scale 0 to 100 (100 = complete destruction)
Alopecurus myosuroides = tested on: Alopecurus myosuroides
From the text: (§1) The seeds of the test plants were sown separately for each species. For the post-emergence treatment, the test plants were first grown to a height of 3 to 8 cm, depending on the plant habit, and only then treated with the active ingredients which had been suspended or emulsified in water. For this purpose, the test plants were either sown directly and grown in the same containers, or they were first grown separately as seedlings and transplanted into the test containers a few days prior to treatment. Depending on the species, the plants were kept at 10-25° C. or 20-35° C., respectively. The test period extended over 2 to 4 weeks. During this time, the plants were tended, and their response to the individual treatments was evaluated. Evaluation was carried out using a scale from 0 to 100. 100 means no emergence of the plants, or complete destruction of at least the aerial moieties, and 0 means no damage, or normal course of growth. A moderate herbicidal activity is given at values of at least 60, a good herbicidal activity is given at values of at least 70, and a very good herbicidal activity is given at values of at least 85. The plants used in the greenhouse experiments were of the following species: [table]

Setaria viridis = tested on: Setaria viridis
From the text: as §1

Avena fatua = tested on: Avena fatua
From the text: as §1

Abutilon theophrasti = tested on: Abutilon theophrasti
From the text: as §1

Echinocloa crus-galli = tested on: Echinocloa crus-galli
From the text: as §1

Amaranthus retroflexus = tested on: Amaranthus retroflexus
From the text: as §1

SMILES	herbicidal activity against Alopecurus myosuroides (Alopecurus myosuroides) [%]	herbicidal activity against Setaria viridis (Setaria viridis) [%]	herbicidal activity against Avena fatua (Avena fatua) [%]	herbicidal activity against Abutilon theophrasti (Abutilon theophrasti) [%]	herbicidal activity against Echinocloa crus-galli (Echinocloa crus-galli) [%]	herbicidal activity against Amaranthus retroflexus (Amaranthus retroflexus) [%]
O=C(O)COc1cc2c(cc1F)COB2O [I-6]	90	100	98	100	98	100
O=C(O)COc1ccc2c(c1)B(O)OC2 [I-1]		100	90	90	100	100
COC(=O)COc1c(F)cc2c(c1F)B(O)OC2 [I-29]		100			95	100
CC(Oc1c(F)cc2c(c1F)B(O)OC2)C(=O)O (stereo not shown) [I-30]	85			95		100
O=C(O)COc1c(F)cc2c(c1F)B(O)OC2 [I-24]		95		100		100
O=C(O)CS(=O)(=O)c1cc2c(cc1F)COB2O [I-37]						100
COC(=O)COc1ccc2c(c1)B(O)OC2 [I-3]		100	90	100	98	100
O=C(O)COc1cc2c(cc1Cl)COB2O [I-8]	98	95	98	100	100	100
COC(=O)COc1c(F)c(F)c2c(c1F)B(O)OC2 [I-39]		100				100
O=C(O)COc1c(Cl)cc2c(c1Cl)B(O)OC2 [I-15]		90			85	100
CC(C)(Oc1ccc2c(c1)B(O)OC2)C(=O)O [I-4]				85	85	
O=C(O)CCCOc1cc2c(cc1F)COB2O [I-25]		95				95
COC(=O)COc1cc2c(cc1Cl)COB2O [I-7]	95	100	98	100	100	100
O=C(O)CSc1cc2c(cc1F)COB2O [I-22]		100		100		100
COC(=O)C(Oc1cc2c(cc1F)COB2O)C(=O)OC [I-10]		95				90
CCOC(=O)C(F)Oc1ccc2c(c1)B(O)OC2 (stereo not shown) [I-26]		85		90		100
CCOC(=O)C(C)(C)Oc1ccc2c(c1)B(O)OC2 [I-2]						100
COC(=O)CSc1cc2c(cc1F)COB2O [I-28]		100		100		100
COC(=O)C(C)Oc1c(F)cc2c(c1F)B(O)OC2 (stereo not shown) [I-35]		98		100		100
COC(=O)COc1cc2c(cc1F)COB2O [I-5]	98	98	98	100	98	100
O=C(O)COc1c(F)c(F)c2c(c1F)B(O)OC2 [I-33]		98		98		100
COC(=O)CS(=O)(=O)c1cc2c(cc1F)COB2O [I-42]				100		100
